Results taken from patent publication US9243027B2, “TGR5 modulators and methods of use thereof” (Intercept Pharmaceuticals, Inc., priority 2007, dated 2016).

Molecular target: T1, TGR5 receptor (Homo sapiens, UniProt Q8TDU6)
T1 sequence (Q8TDU6 1-330): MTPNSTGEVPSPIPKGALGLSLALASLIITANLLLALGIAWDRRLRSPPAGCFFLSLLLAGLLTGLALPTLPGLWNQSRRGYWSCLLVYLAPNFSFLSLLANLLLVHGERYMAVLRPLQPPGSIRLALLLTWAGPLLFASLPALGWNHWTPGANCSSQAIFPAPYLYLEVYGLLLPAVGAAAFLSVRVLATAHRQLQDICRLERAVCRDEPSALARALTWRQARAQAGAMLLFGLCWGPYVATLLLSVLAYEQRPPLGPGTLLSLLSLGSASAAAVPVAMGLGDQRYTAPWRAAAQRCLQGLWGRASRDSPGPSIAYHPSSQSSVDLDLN
Experiment: Potency and efficacy on TGR5 receptor, in vitro assays (Kawamata 2003)
Format: cell-based
Procedure: The potency and efficacy of the compounds of the invention on TGR5 receptor was evaluated using in vitro assays.

With `C[C@H](CCC(=O)O)[C@H]1CCC2C3C(CC[C@@]21C)[C@@]1(C)CC[C@@H](O)C[C@H]1C[C@H]3O` (stereo partly shown) [CDCA, ChenoDeoxyCholicAcid] the “TGR5 Data Efficacy” value was 100%.
